Our source for the relative viability values is the supplement of paper PMC10307832.

Holding throughout (test): relative viability (nuclei count vs DMSO), 5 days (fraction); higher = more cells survive
Compound in one test: CN1CCN(CC1)C2=CC(=C(C=C2)NC3=NC(=C(S3)C(=O)C4=C(C=CC=C4Cl)Cl)N)OC [XMD14-99]
In a few lines: (§1)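 Viability here means nuclei in treated wells divided by nuclei in vehicle wells, reported as the median across plates. Only plates with control CV below 25% and at least one doubling passed. Lung cancer cell lines in 1536-well plates were exposed to five √10-spaced library-drug doses for 5 days and counted from 4× Hoechst images in MetaXpress.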

Compound in a further test: N[C@@H]1CCCN(c2c(/C=C3\SC(=O)NC3=O)cccc2-c2ccccc2)C1 [AZD1208]
A digest of the protocol: as §1

Compound in the test “XMD14-99 + Alpelisib”: CN1CCN(CC1)C2=CC(=C(C=C2)NC3=NC(=C(S3)C(=O)C4=C(C=CC=C4Cl)Cl)N)OC [XMD14-99] + Cc1nc(NC(=O)N2CCC[C@H]2C(N)=O)sc1-c1ccnc(C(C)(C)C(F)(F)F)c1 [Alpelisib] (partner 2 µM)
In a few lines: (§2)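 Medians of duplicate plates are given as relative viability. That measure is the nuclei count in treated wells divided by the count in vehicle wells. Counts were taken on 4× images of lung cancer cell lines in 1536-well plates, 5 days after pin-tool dosing the day after seeding with one drug alone or a fixed anchor-drug dose plus five library-drug doses (not always all listed) in √10 steps.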

Compound in the test “AZD1208 + Pemetrexed”: N[C@@H]1CCCN(c2c(/C=C3\SC(=O)NC3=O)cccc2-c2ccccc2)C1 [AZD1208] + Nc1nc2[nH]cc(CCc3ccc(C(=O)N[C@@H](CCC(=O)O)C(=O)O)cc3)c2c(=O)[nH]1 [Pemetrexed] (partner 0.2 µM)
A digest of the protocol:
as §2

As to EKVX, the relative viability with XMD14-99 (0.08 µM) is 0.98; with XMD14-99 (0.8 µM) it was 0.892; with XMD14-99 (2.53 µM), 0.954; with XMD14-99 (8 µM) it was 0.812; in the test with AZD1208 (0.08 µM), 0.988; with AZD1208 (0.253 µM), 1.11. In addition, the relative viability in the test with AZD1208 (0.8 µM) worked out at 0.903; with AZD1208 (2.53 µM), 1.04; with AZD1208 (8 µM), 0.972; with XMD14-99 + Alpelisib (first compound 0.08 µM), 0.767; with XMD14-99 + Alpelisib (first compound 0.8 µM), 0.985; with XMD14-99 + Alpelisib (first compound 2.53 µM), 0.876. Besides, the relative viability is 0.696 in the test with XMD14-99 + Alpelisib (first compound 8 µM); 0.411 with AZD1208 + Pemetrexed (first compound 0.08 µM); 0.441 in the test with AZD1208 + Pemetrexed (first compound 0.253 µM); 0.404 with AZD1208 + Pemetrexed (first compound 0.8 µM); 0.425 with AZD1208 + Pemetrexed (first compound 2.53 µM); 0.404 with AZD1208 + Pemetrexed (first compound 8 µM).

For EMC-BAC-2, the relative viability in the test with XMD14-99 (0.08 µM) came to 1.01; with XMD14-99 (0.8 µM), 1.03; with XMD14-99 (2.53 µM) it was 0.889; in the test with XMD14-99 (8 µM) it was 0.645; with AZD1208 (0.08 µM), 1.23; in the test with AZD1208 (0.253 µM) it was 0.95. In addition, the relative viability worked out at 0.917 with AZD1208 (0.8 µM); 0.949 with AZD1208 (2.53 µM); 0.754 with AZD1208 (8 µM); 0.728 with XMD14-99 + Alpelisib (first compound 0.08 µM); 0.767 with XMD14-99 + Alpelisib (first compound 0.8 µM); 0.74 in the test with XMD14-99 + Alpelisib (first compound 2.53 µM). Moreover, the relative viability with XMD14-99 + Alpelisib (first compound 8 µM) stood at 0.619; in the test with AZD1208 + Pemetrexed (first compound 0.08 µM), 0.462; with AZD1208 + Pemetrexed (first compound 0.253 µM) it was 0.474; with AZD1208 + Pemetrexed (first compound 0.8 µM) it was 0.511; with AZD1208 + Pemetrexed (first compound 2.53 µM) it was 0.524; with AZD1208 + Pemetrexed (first compound 8 µM), 0.54.

With EPLC-272H, the relative viability with XMD14-99 (0.08 µM) stood at 1.09; in the test with XMD14-99 (0.8 µM), 0.998; with XMD14-99 (2.53 µM), 0.942; with XMD14-99 (8 µM), 0.787; with AZD1208 (0.08 µM), 0.983; with AZD1208 (0.253 µM) it was 0.974. Moreover, the relative viability with AZD1208 (0.8 µM) turned out to be 0.861; with AZD1208 (2.53 µM) it was 0.864; with AZD1208 (8 µM) it was 0.742; with XMD14-99 + Alpelisib (first compound 0.08 µM), 0.938; with XMD14-99 + Alpelisib (first compound 0.8 µM), 1.01; with XMD14-99 + Alpelisib (first compound 2.53 µM), 0.928. For the same cell line, the relative viability came out at 0.92 with XMD14-99 + Alpelisib (first compound 8 µM); 0.353 with AZD1208 + Pemetrexed (first compound 0.08 µM); 0.422 with AZD1208 + Pemetrexed (first compound 0.253 µM); 0.376 in the test with AZD1208 + Pemetrexed (first compound 0.8 µM); 0.342 with AZD1208 + Pemetrexed (first compound 2.53 µM); 0.406 in the test with AZD1208 + Pemetrexed (first compound 8 µM).

For H3255, the relative viability in the test with XMD14-99 (0.08 µM) was 0.955; with XMD14-99 (0.8 µM), 0.957; with XMD14-99 (2.53 µM), 0.802; with XMD14-99 (8 µM) it was 0.684; with AZD1208 (0.08 µM), 1.04; with AZD1208 (0.253 µM), 1.02. The relative viability is 0.938 with AZD1208 (0.8 µM); 0.934 with AZD1208 (2.53 µM); 0.947 with AZD1208 (8 µM); 0.605 in the test with XMD14-99 + Alpelisib (first compound 0.08 µM); 0.636 with XMD14-99 + Alpelisib (first compound 0.8 µM); 0.629 with XMD14-99 + Alpelisib (first compound 2.53 µM). For the same cell line, the relative viability with XMD14-99 + Alpelisib (first compound 8 µM) was found to be 0.506; in the test with AZD1208 + Pemetrexed (first compound 0.08 µM) it was 0.591; with AZD1208 + Pemetrexed (first compound 0.253 µM), 0.577; in the test with AZD1208 + Pemetrexed (first compound 0.8 µM), 0.597; in the test with AZD1208 + Pemetrexed (first compound 2.53 µM), 0.524; with AZD1208 + Pemetrexed (first compound 8 µM) it was 0.598.

As for HARA, the relative viability is 0.894 with XMD14-99 (0.08 µM); 0.947 in the test with XMD14-99 (0.8 µM); 0.701 with XMD14-99 (2.53 µM); 0.692 with XMD14-99 (8 µM); 0.935 in the test with AZD1208 (0.08 µM); 1.17 with AZD1208 (0.253 µM). Also, the relative viability with AZD1208 (0.8 µM) is 0.974; with AZD1208 (2.53 µM) it was 0.931; in the test with AZD1208 (8 µM), 0.997; with XMD14-99 + Alpelisib (first compound 0.08 µM), 0.872; with XMD14-99 + Alpelisib (first compound 0.8 µM) it was 0.784; in the test with XMD14-99 + Alpelisib (first compound 2.53 µM), 0.734. Moreover, the relative viability amounted to 0.481 with XMD14-99 + Alpelisib (first compound 8 µM); 0.251 with AZD1208 + Pemetrexed (first compound 0.08 µM); 0.206 in the test with AZD1208 + Pemetrexed (first compound 0.253 µM); 0.292 in the test with AZD1208 + Pemetrexed (first compound 0.8 µM); 0.282 with AZD1208 + Pemetrexed (first compound 2.53 µM); 0.227 in the test with AZD1208 + Pemetrexed (first compound 8 µM).

With HCC-15, the relative viability in the test with XMD14-99 (0.08 µM) was determined as 1.02; in the test with XMD14-99 (0.8 µM), 1.03; with XMD14-99 (2.53 µM), 0.922; in the test with XMD14-99 (8 µM), 0.759; with AZD1208 (0.08 µM), 1.01; with AZD1208 (0.253 µM) it was 1.02. For the same cell line, the relative viability in the test with AZD1208 (0.8 µM) is 0.879; in the test with AZD1208 (2.53 µM), 0.939; with AZD1208 (8 µM), 0.805; with XMD14-99 + Alpelisib (first compound 0.08 µM), 0.906; with XMD14-99 + Alpelisib (first compound 0.8 µM) it was 0.883; with XMD14-99 + Alpelisib (first compound 2.53 µM), 0.827. In addition, the relative viability stood at 0.657 with XMD14-99 + Alpelisib (first compound 8 µM); 0.215 in the test with AZD1208 + Pemetrexed (first compound 0.08 µM); 0.214 with AZD1208 + Pemetrexed (first compound 0.253 µM); 0.225 with AZD1208 + Pemetrexed (first compound 0.8 µM); 0.237 in the test with AZD1208 + Pemetrexed (first compound 2.53 µM); 0.213 with AZD1208 + Pemetrexed (first compound 8 µM).

As to HCC-44, the relative viability with XMD14-99 (0.08 µM) was 1.04; with XMD14-99 (0.8 µM), 0.969; with XMD14-99 (2.53 µM) it was 1.02; with XMD14-99 (8 µM) it was 0.948; with AZD1208 (0.08 µM), 1.11; in the test with AZD1208 (0.253 µM) it was 0.933. The relative viability was 1.01 with AZD1208 (0.8 µM); 1.09 with AZD1208 (2.53 µM); 1.05 in the test with AZD1208 (8 µM); 0.825 with XMD14-99 + Alpelisib (first compound 0.08 µM); 0.788 with XMD14-99 + Alpelisib (first compound 0.8 µM); 0.821 in the test with XMD14-99 + Alpelisib (first compound 2.53 µM). Further, the relative viability with XMD14-99 + Alpelisib (first compound 8 µM) came out at 0.797; in the test with AZD1208 + Pemetrexed (first compound 0.08 µM), 0.636; with AZD1208 + Pemetrexed (first compound 0.253 µM), 0.592; with AZD1208 + Pemetrexed (first compound 0.8 µM), 0.62; with AZD1208 + Pemetrexed (first compound 2.53 µM) it was 0.688; with AZD1208 + Pemetrexed (first compound 8 µM), 0.639.

In the case of HCC-78, the relative viability with XMD14-99 (0.08 µM) is 0.985; with XMD14-99 (0.8 µM) it was 0.841; with XMD14-99 (2.53 µM), 0.883; with XMD14-99 (8 µM), 0.571; with AZD1208 (0.08 µM), 1.02; with AZD1208 (0.253 µM), 1.02. In addition, the relative viability in the test with AZD1208 (0.8 µM) is 0.963; with AZD1208 (2.53 µM) it was 1.02; with AZD1208 (8 µM), 1.06; in the test with XMD14-99 + Alpelisib (first compound 0.08 µM), 0.371; with XMD14-99 + Alpelisib (first compound 0.8 µM), 0.308; in the test with XMD14-99 + Alpelisib (first compound 2.53 µM), 0.331. Further, the relative viability in the test with XMD14-99 + Alpelisib (first compound 8 µM) is 0.291; with AZD1208 + Pemetrexed (first compound 0.08 µM) it was 0.91; with AZD1208 + Pemetrexed (first compound 0.253 µM), 0.908; in the test with AZD1208 + Pemetrexed (first compound 0.8 µM) it was 0.897; in the test with AZD1208 + Pemetrexed (first compound 2.53 µM) it was 0.87; in the test with AZD1208 + Pemetrexed (first compound 8 µM), 0.912.
